Results published in patent US6303618A, “Cyclin dependent kinase inhibiting purine derivatives” (priority 1997, dated 2001).

Assays:
CDK = conditions: in words; cited from earlier work
CDK4 [1] = target: T1, CDK4 (Homo sapiens, UniProt P11802); conditions: in words; cited from earlier work
CDK4 [2] = target: T1, CDK4; assay: CDK inhibition assay, CDK4; type: biochemical; conditions: IC50 CDK4, CDK4; Table 1
Excerpt: Apart from reference compounds, the compounds listed are accompanied by an NU reference or identification code number.
(§1) By way of example, however, a typical protocol is summarised below.

[3] = system: O^6 -methylguanine DNA-methyltransferase (MGMT)
CDK1 (p34 cdc2)/cyclin B = assay: CDK inhibition assay (histone H1 kinase), CDK1; type: biochemical, starfish (Marthasterias glacialis); conditions: in words, compared with olomoucine
Description: as §1
Histone H1 (type III-S (Sigma) 4° C.) 5 mg/ml in buffer C.
[^32 P]ATP […]: Make up using (multiples of) the following proportions:
DMSO cannot exceed 1% in the assay mixture. Inhibitors are added at 1/10 final assay volume and 10×final strength. DMSO stocks must therefore be diluted to 10×final desired concentration in ≤10% DMSO, ≥90% buffer C.
Start reaction in each tube at 30 second intervals by adding
5 ml [^32 P]ATP vortexing and placing in rack in waterbath at 30° C.
Terminate reaction after 10 min at 30 second intervals in tubes in same order by removing
25 ml reaction mix and spotting onto appropriately labelled filter, allowing to dry for 20-30 seconds and transferring to stirring 1% phosphoric acid.
Blank incubation is performed as above but without histone (add […] buffer C instead) Washing blank is […] ATP added directly to filter.

Cytotoxicity = type: cell-based

T1 sequence (P11802 whole entry, species assumed): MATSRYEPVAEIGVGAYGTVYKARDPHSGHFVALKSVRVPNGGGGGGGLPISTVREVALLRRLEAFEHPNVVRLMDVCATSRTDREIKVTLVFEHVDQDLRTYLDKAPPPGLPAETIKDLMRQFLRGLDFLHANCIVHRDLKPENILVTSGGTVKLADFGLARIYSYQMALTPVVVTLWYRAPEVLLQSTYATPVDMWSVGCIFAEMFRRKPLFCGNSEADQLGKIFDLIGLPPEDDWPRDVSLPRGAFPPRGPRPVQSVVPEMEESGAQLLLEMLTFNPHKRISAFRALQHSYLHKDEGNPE
T1 sequence (P24385 whole entry partner, species assumed): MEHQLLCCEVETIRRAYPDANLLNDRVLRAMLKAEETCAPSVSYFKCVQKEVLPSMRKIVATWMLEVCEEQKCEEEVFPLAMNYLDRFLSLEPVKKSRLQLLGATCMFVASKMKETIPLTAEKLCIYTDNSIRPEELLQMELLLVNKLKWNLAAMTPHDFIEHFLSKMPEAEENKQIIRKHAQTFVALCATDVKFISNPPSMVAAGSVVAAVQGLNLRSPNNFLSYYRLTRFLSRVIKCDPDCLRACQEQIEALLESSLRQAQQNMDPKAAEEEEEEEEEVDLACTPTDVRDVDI

Row | Compound | mode of inhibition (CDK) | activity against CDK4 (CDK4 [1]) | IC50 (CDK4 [2]) [µM] | activity as MGMT inhibitor [3] | inhibitory activity against CDK1(cdc2)/cyclin B complexes (CDK1 (p34 cdc2)/cyclin B) | cytotoxicity (Cytotoxicity)
1 | CC[C@H](CO)Nc1nc(NCc2ccccc2)c2ncn(C(C)C)c2n1 [roscovitine, 6-(benzylamino)-2(R)-[{1-(hydroxy-methyl)propyl}amino]-9-isopropylpurine] | competitive inhibitors for ATP binding | neither has been found to be active |  |  |  | 
2 | Nc1nc(OCC2CCCCC2)c2nc[nH]c2n1 [NU2058, O^6 -Cyclohexylmethylguanine] |  |  | 38 | very little activity | very high inhibitory activity, comparable to that of olomoucine | cytotoxic
